Values after ≈ are worked out from the molar mass of the structure shown. Numbered stars: 1 amine (or outer) side, 2 acyl side, 3 side chain; on linkers, the order of the positions; unused ones are H or OH. Square brackets hold non-standard residues; d marks the D form. Side chains are listed from the residue outwards. Ends that are not written are not given here. Peptide text beside a SMILES is read from it. * marks the point of attachment. ξ: configuration not given here. C18 diacid = O=C(O)CCCCCCCCCCCCCCCCC(=O)*; γGlu = O=C(O)[C@H](CCC(=O)[*:2])N[*:1]; tBuAla = CC(C)(C)C[C@H](N)C(=O)O; ξIva = CCC(C)(N)C(=O)O; AEEA = NCCOCCOCC(=O)O; Aib = CC(C)(N)C(=O)O
Key:
human GIP receptor [1] = target: T1, human GIP receptor (Homo sapiens, UniProt P48546); assay: In vitro cellular cAMP assay for GIP receptor efficacy (human adipocytes); assay type: cell-based; conditions: read-out: hGIPR Emax
T1 construct: human adipocytes endogenously expressing the human GIP receptor; host or cells: human preadipocytes (Lonza) differentiated to adipocytes
T1 sequence (P48546 22-466): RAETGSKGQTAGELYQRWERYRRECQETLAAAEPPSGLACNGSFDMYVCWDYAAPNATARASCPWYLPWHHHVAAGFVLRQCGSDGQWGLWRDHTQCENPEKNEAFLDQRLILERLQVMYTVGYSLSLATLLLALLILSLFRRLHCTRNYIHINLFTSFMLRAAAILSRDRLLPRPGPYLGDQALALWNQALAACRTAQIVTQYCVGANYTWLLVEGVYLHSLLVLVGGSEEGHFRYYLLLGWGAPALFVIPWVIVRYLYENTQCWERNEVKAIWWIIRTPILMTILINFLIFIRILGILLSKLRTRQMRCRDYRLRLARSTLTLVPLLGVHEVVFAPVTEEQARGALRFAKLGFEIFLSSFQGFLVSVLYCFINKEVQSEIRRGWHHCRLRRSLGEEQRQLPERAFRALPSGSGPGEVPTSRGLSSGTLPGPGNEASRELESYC
Protocol: For this, one vial of human preadipocytes (˜10^6 cells; Lonza) was thawed in a T-75 cell culture dish. The cells were cultivated at 37° C., 5% CO2, 95% humidity in Preadipocyte Growth Medium with Supplement Mix from Promo Cell.
After 3 days, the cells were washed with PBS and 1.5 ml Trypsin, incubated for 4 min, then resuspended in medium, centrifugated for 10 min @ 300 rcf RT, resuspended again and distributed to four T-75 cell culture dishes. Again, the cells were cultivated at 37° C., 5% CO2, 95% humidity.
After 5 days, the cells were washed with PBS and 1.5 ml Trypsin, incubated for 4 min, then resuspended in medium, centrifugated for 10 min @ 300 rcf RT, resuspended again and sawn in T-75 dishes (2.5×10^6 cells per dish) in 15 ml Differentiation medium each.
The differentiation medium had the following composition: DMEM (Gibco), Ham's F10 (Gibco), 15 mM HEPES (Gibco), 3% FCS (PAA), 33 μM biotin (Sigma-Aldrich), 17 μM Pantothenate (Sigma-Aldrich), 0.1 μM human insulin (Sigma-Aldrich), 1 μM dexamethason (Sigma-Aldrich), 0.1 μM PPARgamma agonist (#R2408, Sigma-Aldrich), 0.6×Anti-Anti (#15240, ThermoFisher), 200 μM IBMX (AppliChem), and 0.01 μM L-thyroxine (Sigma-Aldrich).
After 6 days of differentiation, 5000 cells per well were dispensed on a 96-well plate (#CLS3694 from Corning®, Sigma-Aldrich). For measurement of cAMP generation, 25 μL of test compound was added to each well of the 96-well plate, followed by incubation for 30 min at room temperature.
The cAMP generated following test compound stimulation was determined using a kit from Cisbio Corp. based on HTRF (Homogenous Time Resolved Fluorescence). The cAMP assay was performed according to manufacturer's instructions (Cisbio).
The cAMP content of cells was determined using a kit from Cisbio Corp. based on HTRF (Homogenous Time Resolved Fluorescence).
After addition of HTRF reagents diluted in lysis buffer (kit components), the plates were incubated for 1 h, followed by measurement of the fluorescence ratio at 665/620 nm.

[2] = Solubility assessment (UHPLC-UV of supernatant, target 10 mg/ml); assay type: physicochemical; conditions: pH 7.4, Soluble amount
Protocol: Prior to the solubility measurement of a peptide batch, its purity was determined through UHPLC/MS.
Therefore, solutions from solid samples were prepared in a buffer system with a concentration of 10 mg/ml compound based on the previously determined % purity: • Solubility buffer system A) 100 mM phosphate buffer pH 7.4 • Solubility buffer system B) 8 mM phosphate buffer pH 7.4, 14 mg/ml propylene glycol, 5.5 mg/ml phenol • Solubility buffer system C) 100 mM phosphate buffer pH 7.4, 2.7 mg/ml m-cresol
UHPLC-UV was performed after 1 h of gentle agitation and storage at 5° C. overnight (24 h) from the supernatant, which was obtained after 15 min of centrifugation at 2500 RCF (relative centrifugal acceleration).
The different UV extinction coefficients of sample and reference peptide were calculated based on the different amino acid sequences and considered in the concentration calculation.
The analytical method used was Analytical UHPLC Method A.
Peptide samples were prepared in solubility buffer system A or C and solubility was assessed as described in Methods.

human GIP receptor [3] = target: T2, human GIP receptor (human, UniProt P48546 22-466); assay: cell-based or functional assay
T2 sequence (looked up): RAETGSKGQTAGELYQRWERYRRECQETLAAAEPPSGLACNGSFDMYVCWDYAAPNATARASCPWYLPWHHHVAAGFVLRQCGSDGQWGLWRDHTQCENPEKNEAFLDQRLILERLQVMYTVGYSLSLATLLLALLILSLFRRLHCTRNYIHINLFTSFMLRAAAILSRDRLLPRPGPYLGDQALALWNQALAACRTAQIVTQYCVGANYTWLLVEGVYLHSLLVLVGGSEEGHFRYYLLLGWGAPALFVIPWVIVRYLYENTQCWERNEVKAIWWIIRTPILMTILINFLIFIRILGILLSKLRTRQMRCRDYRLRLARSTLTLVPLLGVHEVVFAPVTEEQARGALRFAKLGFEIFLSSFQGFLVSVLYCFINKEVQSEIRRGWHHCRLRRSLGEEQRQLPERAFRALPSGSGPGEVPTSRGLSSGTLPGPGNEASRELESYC

Q: What does the source list for CC[C@H](C)[C@H](NC(=O)[C@H](Cc1ccccc1)NC(=O)[C@H](CCC(=O)O)NC(=O)[C@H](CCC(=O)O)NC(=O)[C@H](CCC(N)=O)NC(=O)[C@H](Cc1c[nH]cn1)NC(=O)[C@@H](NC(=O)[C@H](CCCNC(=N)N)NC(=O)[C@H](CC(=O)O)NC(=O)[C@H](CCCCNC(=O)COCCOCCNC(=O)COCCOCCNC(=O)CC[C@H](NC(=O)CCCCCCCCCCCCCCCCC(=O)O)C(=O)O)NC(=O)C(C)(C)NC(=O)[C@@H](NC(=O)[C@H](CO)NC(=O)[C@H](CC(C)C)NC(=O)[C@H](CC(=O)O)NC(=O)[C@H](CO)NC(=O)[C@@H](NC(=O)C(C)(CC)NC(=O)[C@@H](NC(=O)CNC(=O)[C@H](CCC(=O)O)NC(=O)C(C)(C)NC(=O)[C@@H](N)Cc1ccc(O)cc1)[C@@H](C)O)[C@@H](C)CC)[C@@H](C)CC)[C@@H](C)CC)C(=O)N[C@@H](CCC(=O)O)C(=O)N[C@@H](Cc1c[nH]c2ccccc12)C(=O)N[C@@H](CC(C)C)C(=O)N[C@@H](CC(C)C)C(=O)N[C@@H](C)C(=O)N[C@@H](CCC(N)=O)C(=O)NCC(=O)N1CCC[C@H]1C(=O)N[C@@H](CO)C(=O)N[C@@H](CO)C(=O)NCC(=O)N[C@@H](C)C(=O)N1CCC[C@H]1C(=O)N1CCC[C@H]1C(=O)N1CCC[C@H]1C(=O)N[C@@H](CO)C(N)=O (stereo partly drawn) [SEQ ID NO: 24, H2N-Y-Aib-E-G-T-Iva-I-S-D-L-S-I-Aib-K[{AEEA}2-gGlu-C18OH]-DRIHQEEFIEWLLAQGPSSGAPPPS-NH2] (H-Y[Aib]EGT[ξIva]ISDLSI[Aib]K([AEEA-AEEA-γGlu-C18 diacid])DRIHQEEFIEWLLAQGPSSGAPPPS-NH2)?
A: Emax (human GIP receptor [1]): 100%; solubility [2]: 7800 µg/mL (≈ 1570 µM)

B1: SEQ ID NO: 33 (peptide)
peptide: Y[Aib]EGTFISDLSI[Aib]K([AEEA-AEEA-γGlu-C18 diacid])DRIHQEEFIEWL[tBuAla]AQGPSSGAPPPS-NH2
modifications: N-terminus assumed
SMILES: CC[C@H](C)[C@H](NC(=O)[C@H](Cc1ccccc1)NC(=O)[C@H](CCC(=O)O)NC(=O)[C@H](CCC(=O)O)NC(=O)[C@H](CCC(N)=O)NC(=O)[C@H](Cc1c[nH]cn1)NC(=O)[C@@H](NC(=O)[C@H](CCCNC(=N)N)NC(=O)[C@H](CC(=O)O)NC(=O)[C@H](CCCCNC(=O)COCCOCCNC(=O)COCCOCCNC(=O)CC[C@H](NC(=O)CCCCCCCCCCCCCCCCC(=O)O)C(=O)O)NC(=O)C(C)(C)NC(=O)[C@@H](NC(=O)[C@H](CO)NC(=O)[C@H](CC(C)C)NC(=O)[C@H](CC(=O)O)NC(=O)[C@H](CO)NC(=O)[C@@H](NC(=O)[C@H](Cc1ccccc1)NC(=O)[C@@H](NC(=O)CNC(=O)[C@H](CCC(=O)O)NC(=O)C(C)(C)NC(=O)[C@@H](N)Cc1ccc(O)cc1)[C@@H](C)O)[C@@H](C)CC)[C@@H](C)CC)[C@@H](C)CC)C(=O)N[C@@H](CCC(=O)O)C(=O)N[C@@H](Cc1c[nH]c2ccccc12)C(=O)N[C@@H](CC(C)C)C(=O)N[C@@H](CC(C)(C)C)C(=O)N[C@@H](C)C(=O)N[C@@H](CCC(N)=O)C(=O)NCC(=O)N1CCC[C@H]1C(=O)N[C@@H](CO)C(=O)N[C@@H](CO)C(=O)NCC(=O)N[C@@H](C)C(=O)N1CCC[C@H]1C(=O)N1CCC[C@H]1C(=O)N1CCC[C@H]1C(=O)N[C@@H](CO)C(N)=O
Q: What does the source list for B1?
A: EC50 hGIPR 0% HSA (cAMP, HEK-293) (human GIP receptor [3]): 0.22 pM; EC50 hGIPR 0.1% BSA (cAMP, HEK-293) (human GIP receptor [3]): 64.4 pM

— patent US20240360194A1, “New Peptides as Potent and Selective GIP Receptor Agonists” (Sanofi, priority 2021, published 2024)
